In the CheMixHub viscosity set:

Test: xn = mol fraction of the nth substance listed

CCCCCCCCCCCCBr + BrC(Br)C(Br)Br
101 kPa
Details	viscosity [mPa·s]
298.08 K, x1 = 0.1586	7.196
298.08 K, x1 = 0.3004	5.936
298.08 K, x1 = 0.4493	5.091
298.08 K, x1 = 0.6166	4.392
298.08 K, x1 = 0.7772	3.877
303.1 K, x1 = 0.1376	6.506
303.1 K, x1 = 0.2855	5.399
303.1 K, x1 = 0.4255	4.58
303.1 K, x1 = 0.6541	3.787
303.1 K, x1 = 0.7773	3.437
308.11 K, x1 = 0.1363	5.669
308.11 K, x1 = 0.289	4.673
308.11 K, x1 = 0.4415	4.027
308.11 K, x1 = 0.6215	3.498
308.11 K, x1 = 0.7595	3.147
313.11 K, x1 = 0.1456	5.011
313.11 K, x1 = 0.2924	4.238
313.11 K, x1 = 0.4286	3.667
313.11 K, x1 = 0.634	3.093
313.11 K, x1 = 0.782	2.781

CCOC(C)=O + C1CCCCC1
viscosity [mPa·s], 101 kPa
Details	298.15 K	308.15 K
x1 = 0.0548	0.841	0.706
x1 = 0.1549	0.765	0.63
x1 = 0.2552	0.7	0.569
x1 = 0.3558	0.643	0.52
x1 = 0.4539	0.595	0.481
x1 = 0.4998	0.575	0.466
x1 = 0.5513	0.554	0.451
x1 = 0.6549	0.516	0.426
x1 = 0.7515	0.486	0.408
x1 = 0.8531	0.458	0.395
x1 = 0.9536	0.435	0.387

CCOc1ccccc1 + C1CCOC1
viscosity [mPa·s], 101.33 kPa
Details	x1 = 0.031	x1 = 0.072	x1 = 0.117	x1 = 0.197	x1 = 0.246	x1 = 0.326	x1 = 0.492	x1 = 0.695	x1 = 0.899
298 K	0.475	0.493	0.515	0.555	0.581	0.627	0.736	0.891	1.067
303 K	0.451	0.468	0.487	0.524	0.547	0.587	0.684	0.824	0.985
308 K	0.431	0.447	0.464	0.496	0.518	0.554	0.642	0.766	0.908

CCOC(C)=O + C1COCCO1
Details	viscosity [mPa·s]
303.15 K, 101 kPa, x2 = 0.1021	0.435
303.15 K, 101 kPa, x2 = 0.2024	0.466
303.15 K, 101 kPa, x2 = 0.2982	0.505
303.15 K, 101 kPa, x2 = 0.4026	0.553
303.15 K, 101 kPa, x2 = 0.4968	0.602
303.15 K, 101 kPa, x2 = 0.6025	0.668
303.15 K, 101 kPa, x2 = 0.697	0.742
303.15 K, 101 kPa, x2 = 0.8007	0.834
303.15 K, 101 kPa, x2 = 0.9003	0.948
303.15 K, 101.32 kPa, x1 = 0.0451	1.02
303.15 K, 101.32 kPa, x1 = 0.0948	0.948
303.15 K, 101.32 kPa, x1 = 0.1332	0.901
303.15 K, 101.32 kPa, x1 = 0.1779	0.848
303.15 K, 101.32 kPa, x1 = 0.2236	0.802
303.15 K, 101.32 kPa, x1 = 0.3187	0.717
303.15 K, 101.32 kPa, x1 = 0.4176	0.648
303.15 K, 101.32 kPa, x1 = 0.467	0.616
303.15 K, 101.32 kPa, x1 = 0.5155	0.59
303.15 K, 101.32 kPa, x1 = 0.6182	0.539
303.15 K, 101.32 kPa, x1 = 0.7243	0.497
303.15 K, 101.32 kPa, x1 = 0.8297	0.456
303.15 K, 101.32 kPa, x1 = 0.9411	0.422
308.15 K, 101 kPa, x2 = 0.1	0.439
308.15 K, 101 kPa, x2 = 0.2	0.475
308.15 K, 101 kPa, x2 = 0.3	0.506
308.15 K, 101 kPa, x2 = 0.4	0.542
308.15 K, 101 kPa, x2 = 0.5	0.58
308.15 K, 101 kPa, x2 = 0.6	0.625
308.15 K, 101 kPa, x2 = 0.8	0.756
308.15 K, 101 kPa, x2 = 0.9	0.852
313.15 K, 101.32 kPa, x1 = 0.209	0.717
313.15 K, 101.32 kPa, x1 = 0.405	0.583
313.15 K, 101.32 kPa, x1 = 0.5144	0.528
313.15 K, 101.32 kPa, x1 = 0.602	0.49
313.15 K, 101.32 kPa, x1 = 0.7994	0.423

CCCCCCCCCCCC(=O)OC + C1C[C@@H]2[C@H]3CC[C@H](C3)[C@@H]2C1
viscosity [mPa·s], 100 kPa
Details	x2 = 0.1012	x2 = 0.2004	x2 = 0.3001	x2 = 0.4004	x2 = 0.5021	x2 = 0.6003	x2 = 0.7003	x2 = 0.8001	x2 = 0.8991
293.15 K	3.062	3.012	2.973	2.927	2.896	2.874	2.864	2.877	2.909
298.15 K	2.73	2.69	2.659	2.625	2.599	2.585	2.58	2.595	2.628
303.15 K	2.454	2.419	2.397	2.369	2.349	2.339	2.338	2.356	2.388
308.15 K	2.218	2.191	2.173	2.152	2.134	2.129	2.13	2.149	2.183
313.15 K	2.018	1.994	1.98	1.963	1.951	1.946	1.949	1.969	2.001
318.15 K	1.844	1.824	1.813	1.799	1.789	1.787	1.791	1.811	1.841
323.15 K	1.693	1.676	1.668	1.656	1.647	1.647	1.652	1.672	1.702

CCOc1ccccc1 + CC1COC(=O)O1
viscosity [mPa·s], 101.33 kPa
Details	x2 = 0.1218	x2 = 0.2226	x2 = 0.3591	x2 = 0.4874	x2 = 0.5257	x2 = 0.5674	x2 = 0.6723	x2 = 0.7807	x2 = 0.8898	x2 = 0.9431
293.15 K	1.338	1.436	1.586	1.739	1.789	1.837	1.985	2.17	2.405	2.544
303.15 K	1.119	1.202	1.316	1.44	1.474	1.516	1.63	1.773	1.96	2.078
313.15 K	0.945	1.013	1.11	1.215	1.246	1.278	1.373	1.495	1.651	1.742

CCOC(C)=O + CC#N
303.15 K, 101.33 kPa
Details	viscosity [mPa·s]
x2 = 0.0931	0.3988
x2 = 0.1928	0.3934
x2 = 0.298	0.3881
x2 = 0.3925	0.3819
x2 = 0.4985	0.3753
x2 = 0.5974	0.3676
x2 = 0.6982	0.3591
x2 = 0.8001	0.3486
x2 = 0.8988	0.3402

OCC(O)CO + CC(=O)N(C)C
viscosity [mPa·s], 101 kPa
Details	x1 = 0.124	x1 = 0.241	x1 = 0.353	x1 = 0.459	x1 = 0.56	x1 = 0.656	x1 = 0.748	x1 = 0.836	x1 = 0.92
303.15 K	2.21	3.92	7.04	12.8	29.9	61.6	120.7	204.4	335.7
318.15 K	1.78	3.01	4.79	7.81	17.6	26.3	43.2	75.9	117.4

CCCCCCCCCCCC(=O)OC + CC(C)C1CCCCC1
viscosity [mPa·s], 100 kPa
Details	x2 = 0.1008	x2 = 0.2004	x2 = 0.3006	x2 = 0.4002	x2 = 0.5004	x2 = 0.6003	x2 = 0.7001	x2 = 0.8	x2 = 0.9001
293.15 K	2.862	2.608	2.365	2.139	1.93	1.728	1.546	1.378	1.229
298.15 K	2.558	2.342	2.133	1.937	1.756	1.579	1.419	1.271	1.137
303.15 K	2.303	2.117	1.936	1.765	1.606	1.45	1.308	1.176	1.056
308.15 K	2.088	1.926	1.768	1.617	1.476	1.338	1.211	1.093	0.984
313.15 K	1.904	1.759	1.621	1.488	1.363	1.239	1.126	1.018	0.92
318.15 K	1.743	1.616	1.493	1.375	1.262	1.152	1.05	0.952	0.863
323.15 K	1.602	1.49	1.38	1.274	1.174	1.074	0.981	0.893	0.812

COC(=O)CC(C)=O + CC(C)CO
viscosity [mPa·s], 101.3 kPa
Details	x1 = 0.1046	x1 = 0.2052	x1 = 0.3095	x1 = 0.4094	x1 = 0.5075	x1 = 0.6057	x1 = 0.7026	x1 = 0.8059	x1 = 0.902
298.15 K	2.24	1.81	1.598	1.463	1.385	1.352	1.35	1.38	1.449
303.15 K	1.944	1.591	1.412	1.303	1.241	1.221	1.223	1.251	1.312
308.15 K	1.696	1.407	1.257	1.17	1.124	1.108	1.114	1.143	1.198

CCCCCC[n+]1ccn(C)c1.O=S(=O)([O-])C(F)(F)F + CC(C)O
Details	viscosity [mPa·s]
298.15 K, 100 kPa, x2 = 0.1282	99.47
